Test results taken from the NIST ThermoML archive (doi:10.1016/j.jct.2018.02.025).
“And” between values parts separate entries of the source, which are not always exact repeats. Equal entries are not always repeated.

Conditions: Transpiration method

c1ccc(-c2ccccc2)cc1 [biphenyl]
Conditions	vapor or sublimation pressure
295.4 K, Crystal	0.00091 kPa
298.2 K, Crystal	0.00126 kPa
303.3 K, Crystal	0.00236 kPa
308.2 K, Crystal	0.00383 kPa
313.2 K, Crystal	0.00653 kPa
315.4 K, Crystal	0.00777 kPa
318.3 K, Crystal	0.01045 kPa
323.5 K, Crystal	0.01637 kPa
325.8 K, Crystal	0.02135 kPa
328.4 K, Crystal	0.02749 kPa
331.3 K, Crystal	0.03389 kPa
333.4 K, Crystal	0.0404 kPa
335.8 K, Crystal	0.04928 kPa
338.4 K, Crystal	0.06189 kPa
345.7 K, Liquid	0.1041 kPa
347.7 K, Liquid	0.1176 kPa
348.3 K, Liquid	0.1226 kPa
350.4 K, Liquid	0.1376 kPa
353.3 K, Liquid	0.1597 kPa
358.3 K, Liquid	0.2153 kPa
363.3 K, Liquid	0.2837 kPa
368.2 K, Liquid	0.3498 kPa and 0.3659 kPa
373.1 K, Liquid	0.4791 kPa
375.4 K, Liquid	0.5425 kPa
376.2 K, Liquid	0.5682 kPa
